These results are taken from US20100120730A1, “6-BENZYL-2,3,4,7-TETRAHYDRO-INDOLO [2,3-C] QUINOLINE COMPOUNDS USEFUL AS PDE5 INHIBITORS” (NYCOMED GmbH, priority 2007, published 2010).

Where a name gives a salt, the structure may show the parent alone.

One series deals with T1, human PDE5 (Homo sapiens, UniProt O76074).
T1 construct: from tissue; host or cells: human platelets from fresh donor blood (10,000 g supernatant of sonified platelets)
In words: Inhibition of PDE5 activity (modified SPA test, human platelet lysate). Type of series: biochemical. The settings on record: PDE5-containing human platelet lysate, 0.5 μM cGMP substrate, 37° C. As for the experimental part:
As a source for human PDE5, platelets were used. For that purpose, 150 ml fresh blood from human donors anticoagulated with citrate [final concentration 0.3% (w/v)] was centrifuged at 200 g for 10 min to obtain the so-called platelet-rich-plasma (PRP) as a supernatant. 1/10 volume of ACD solution (85 mM Na3-citrate, 111 mM D-glucose, 71 mM citric acid, pH 4.4) was added to 9/10 volume of PRP. After centrifugation (1,400 g, 10 min) the cell pellet was resuspended in 3 ml homogenization buffer (NaCl 140 mM, KCl 3.8 mM, EGTA 1 mM, MgCl2 1 mM, Tris-HCl 20 mM, beta-mercaptoethanol 1 mM, pH 8.2) plus protease-inhibitor mix giving rise to the final concentrations of 0.5 mM Pefablock (Roche), 10 μM Leupeptin, 5 μM Trypsininhibitor, 2 mM Benzamidin and 10 μM Pepstatin A. The suspension was sonified and thereafter centrifuged for 15 min at 10,000 g. The resulting supernatant (platelet lysate) was used for enzymatic testings.
PDE5A1 activity is inhibited by the compounds of the invention in a modified SPA (scintillation proximity assay) test, supplied by Amersham Biosciences (see procedural instructions “phosphodiesterase [3H]cAMP SPA enzyme assay, code TRKQ 7090”), carried out in 96-well microtitre plates (MTP's). The test volume is 100 μl and contains 20 mM Tris buffer (pH 7.4), 0.1 mg of BSA (bovine serum albumin)/ml, 5 mM Mg^2+, 1 μM motapizone, 10 nM PDE2 inhibitor BAY-60-7550, 0.5 μM cGMP (including about 50,000 cpm of [3H]cGMP as a tracer), 1 μl of the respective compound dilution in dimethylsulfoxide (DMSO) and sufficient PDE5-containing platelet lysat (10,000×g supernatant, see above) to ensure that 10-20 wt % of the cGMP is converted under the said experimental conditions. […] After a preincubation of 5 min at 37° C., the reaction was started by adding the substrate (cGMP) and the assay was incubated for a further 15 min; after that, it was stopped by adding SPA beads (50 μl). In accordance with the manufacturer's instructions, the SPA beads had previously been resuspended in water, but were then diluted 1:3 (v/v) in water; the diluted solution also contains 3 mM 8-methoxymethyl-3-isobutyl-1-methylxanthine (IBMX) to ensure a complete PDE activity stop. After the beads have been sedimented (>30 min), the MTP's are analyzed in commercially available luminescence detection devices. The corresponding IC50 values of the compounds for the inhibition of PDE activity are determined from the concentration-effect curves by means of non-linear regression.
As for `COc1ccc(Cc2nc3c(c4c2[nH]c2ccccc24)C(=O)CC(C)(C)C3)cc1` [Example 1, 6-(4-Methoxy-benzyl)-3,3-dimethyl-2,3,4,7-tetrahydro-indolo[2,3-c]quinolin-1-one], the IC50 (commonly the concentration that inhibits the measured activity by half) was 3.02 nM.
Compound `COc1ccc(Cc2nc3c(c4c2[nH]c2ccccc24)C(=O)CCC3)cc1` [Example 2, 6-(4-Methoxy-benzyl)-2,3,4,7-tetrahydro-indolo[2,3-c]quinolin-1-one] showed an IC50 of 6.31 nM. This IC50 is about 2.1-fold higher than that of the compound before.
Same read-out and setting: as for `CC1(C)CC(=O)c2c(nc(Cc3ccc(Br)cc3)c3[nH]c4ccccc4c23)C1` [Example 5, 6-(4-Bromo-benzyl)-3,3-dimethyl-2,3,4,7-tetrahydro-indolo[2,3-c]quinolin-1-one, HCl salt], the figure is 10.7 nM; as for `COc1ccc(Cc2nc3c(c4c2[nH]c2ccccc24)CCCC3)cc1` [Example 6, 6-(4-Methoxy-benzyl)-2,3,4,7-tetrahydro-1H-indolo[2,3-c]quinoline, HCl salt], 12.6 nM; as for `CC1(C)CC(=O)c2c(nc(Cc3ccc4c(c3)OCO4)c3[nH]c4ccccc4c23)C1` [Example 7, 6-Benzo[1,3]dioxol-5-ylmethyl-3,3-dimethyl-2,3,4,7-tetrahydro-indolo[2,3-c]quinolin-1-one, HCl salt], 3.89 nM.
Still for that read-out and setting: as for `CC1(C)CC(=O)c2c(nc(Cc3ccc([N+](=O)[O-])cc3)c3[nH]c4ccccc4c23)C1` [Example 8, 3,3-Dimethyl-6-(4-nitro-benzyl)-2,3,4,7-tetrahydro-indolo[2,3-c]quinolin-1-one, HCl salt], the figure is 81.3 nM; as for `Brc1ccc(Cc2nc3c(c4c2[nH]c2ccccc24)CCCC3)cc1` [Example 9, 6-(4-Bromo-benzyl)-2,3,4,7-tetrahydro-1H-indolo[2,3-c]quinoline, HCl salt], 22.9 nM.
In turn, `COc1cccc(Cc2nc3c(c4c2[nH]c2ccccc24)C(=O)CC(C)(C)C3)c1` [Example 10, 6-(3-Methoxy-benzyl)-3,3-dimethyl-2,3,4,7-tetrahydro-indolo[2,3-c]quinolin-1-one] showed an IC50 of 79.4 nM.
Still for that read-out and setting: as for `CC1(C)CC(=O)c2c(nc(Cc3cccc([N+](=O)[O-])c3)c3[nH]c4ccccc4c23)C1` [Example 13, 3,3-Dimethyl-6-(3-nitro-benzyl)-2,3,4,7-tetrahydro-indolo[2,3-c]quinolin-1-one], the figure is 135 nM; as for `O=C1CCCc2nc(Cc3cccc([N+](=O)[O-])c3)c3[nH]c4ccccc4c3c21` [Example 19, 6-(3-Nitro-benzyl)-2,3,4,7-tetrahydro-indolo[2,3-c]quinolin-1-one], 288 nM.
On the same count and under the same terms, the value for `CC1(C)CC(=O)c2c(nc(Cc3ccc(O)cc3)c3[nH]c4ccccc4c23)C1` [Example 39, 6-(4-Hydroxy-benzyl)-3,3-dimethyl-2,3,4,7-tetrahydro-indolo[2,3-c]quinolin-1-one] was 1.91 nM.
Consider `Nc1ccc(Cc2nc3c(c4c2[nH]c2ccccc24)C(=O)CCC3)cc1` [Example 42, 6-(4-Amino-benzyl)-2,3,4,7-tetrahydro-indolo[2,3-c]quinolin-1-one], for which half-maximal inhibition (IC50) required 25.7 nM.
In turn, `Nc1cccc(Cc2nc3c(c4c2[nH]c2ccccc24)C(=O)CCC3)c1` [Example 43, 6-(3-Amino-benzyl)-2,3,4,7-tetrahydro-indolo[2,3-c]quinolin-1-one] showed an IC50 of 11.5 nM.
On the same count and under the same terms, the value for `CCC(=O)Nc1ccc(Cc2nc3c(c4c2[nH]c2ccccc24)C(=O)CC(C)(C)C3)cc1` [Example 45, N-[4-(3,3-Dimethyl-1-oxo-2,3,4,7-tetrahydro-1H-indolo[2,3-c]quinolin-6-ylmethyl)-phenyl]-propionamide] was 34.7 nM; that for `CC(=O)Nc1ccc(Cc2nc3c(c4c2[nH]c2ccccc24)C(=O)CCC3)cc1` [Example 46, N-[4-(1-Oxo-2,3,4,7-tetrahydro-1H-indolo[2,3-c]quinolin-6-ylmethyl)-phenyl]-acetamide] was 67.6 nM.
The same measure, in the same setting: the value for `CC1(C)Cc2nc(Cc3ccc4c(c3)OCO4)c3[nH]c4ccccc4c3c2C(O)C1` (stereo not shown) [Example 59, 6-Benzo[1,3]dioxol-5-ylmethyl-3,3-dimethyl-2,3,4,7-tetrahydro-1H-indolo[2,3-c]quinolin-1-ol] was 2.69 nM; that for `COc1ccc(Cc2nc3c(c4c2[nH]c2ccccc24)C(O)CC(C)(C)C3)c(F)c1` (stereo not shown) [Example 65, 6-(2-Fluoro-4-methoxy-benzyl)-3,3-dimethyl-2,3,4,7-tetrahydro-1H-indolo[2,3-c]quinolin-1-ol] was 1.12 nM; that for `COc1ccc(Cc2nc3c(c4c2[nH]c2ccccc24)C(O)CC(C)(C)C3)cc1F` (stereo not shown) [Example 68, 6-(3-Fluoro-4-methoxy-benzyl)-3,3-dimethyl-2,3,4,7-tetrahydro-1H-indolo[2,3-c]quinolin-1-ol] was 1.58 nM.
`Nc1cccc(Cc2nc3c(c4c2[nH]c2ccccc24)C(O)CCC3)c1` (stereo not shown) [Example 72, 6-(3-Amino-benzyl)-2,3,4,7-tetrahydro-1H-indolo[2,3-c]quinolin-1-ol]: the IC50 was 49 nM.
Still for that read-out and setting: the value for `CC1(C)CC(=O)c2c(nc(Cc3ccc(NC(N)=O)cc3)c3[nH]c4ccccc4c23)C1` [Example 75, [4-(3,3-Dimethyl-1-oxo-2,3,4,7-tetrahydro-1H-indolo[2,3-c]quinolin-6-ylmethyl)-phenyl]-urea] was 10.5 nM.

System in another series: not given
Assay: not given
Details: not given
On to `CC1(C)CC(=O)c2c(nc(Cc3ccc(Br)cc3)c3[nH]c4ccccc4c23)C1` (as salt: HCl) [Example 5, 6-(4-Bromo-benzyl)-3,3-dimethyl-2,3,4,7-tetrahydro-indolo[2,3-c]quinolin-1-one, HCl salt], for which the melting point (commonly the temperature, or range, at which the solid turns liquid) fell in the range of 244 to 245 °C.
The same measure, in the same setting: as for `CC1(C)CC(=O)c2c(nc(Cc3ccc([N+](=O)[O-])cc3)c3[nH]c4ccccc4c23)C1` (as salt: HCl) [Example 8, 3,3-Dimethyl-6-(4-nitro-benzyl)-2,3,4,7-tetrahydro-indolo[2,3-c]quinolin-1-one, HCl salt], the figure is 214 to 215 °C; as for `Brc1ccc(Cc2nc3c(c4c2[nH]c2ccccc24)CCCC3)cc1` (as salt: HCl) [Example 9, 6-(4-Bromo-benzyl)-2,3,4,7-tetrahydro-1H-indolo[2,3-c]quinoline, HCl salt], 311 to 312 °C; as for `CC1(C)Cc2nc(Cc3ccc4c(c3)OCO4)c3[nH]c4ccccc4c3c2C(O)C1` (stereo not shown) (as salt: HCl) [Example 59, 6-Benzo[1,3]dioxol-5-ylmethyl-3,3-dimethyl-2,3,4,7-tetrahydro-1H-indolo[2,3-c]quinolin-1-ol], 114 to 119 °C.
In turn, `COc1ccc(Cc2nc3c(c4c2[nH]c2ccccc24)C(=O)CCC3)cc1` [Example 2, 6-(4-Methoxy-benzyl)-2,3,4,7-tetrahydro-indolo[2,3-c]quinolin-1-one] displayed a melting point of 177 °C.
On the same count and under the same terms, as for `CC1(C)CC(=O)c2c(nc(Cc3ccc([N+](=O)[O-])cc3)c3[nH]c4ccccc4c23)C1` [Example 16, 3,3-Dimethyl-6-(4-nitro-benzyl)-2,3,4,7-tetrahydro-indolo[2,3-c]quinolin-1-one], the figure is 164 to 166 °C; as for `CC1(C)Cc2nc(Cc3ccc(O)c(F)c3)c3[nH]c4ccccc4c3c2[C@H](O)C1` [Example 87, (R)-6-(3-Fluoro-4-hydroxy-benzyl)-3,3-dimethyl-2,3,4,7-tetrahydro-1H-indolo[2,3-c]quinolin-1-ol], 232 to 234 °C.
Compound `CC1(C)Cc2nc(Cc3ccc(O)c(F)c3)c3[nH]c4ccccc4c3c2[C@@H](O)C1` [Example 88, (S)-6-(3-Fluoro-4-hydroxy-benzyl)-3,3-dimethyl-2,3,4,7-tetrahydro-1H-indolo[2,3-c]quinolin-1-ol] displayed a melting point of 233 to 234 °C.
`COc1c(F)cc(Cc2nc3c(c4c2[nH]c2ccccc24)[C@@H](O)CC(C)(C)C3)cc1F` [Example 89, (S)-6-(3,5-Difluoro-4-methoxy-benzyl)-3,3-dimethyl-2,3,4,7-tetrahydro-1H-indolo[2,3-c]quinolin-1-ol] had a melting point of 161 to 162 °C.
For `COc1c(F)cc(Cc2nc3c(c4c2[nH]c2ccccc24)[C@H](O)CC(C)(C)C3)cc1F` [Example 90, (R)-6-(3,5-Difluoro-4-methoxy-benzyl)-3,3-dimethyl-2,3,4,7-tetrahydro-1H-indolo[2,3-c]quinolin-1-ol], the melting point fell in the range of 161 to 162 °C.
The compound `COc1ccc(Cc2nc3c(c4c2[nH]c2ccccc24)[C@@H](OC(=O)[C@@H]2CCC(=O)N2)CC(C)(C)C3)cc1F` [Example 98, (S)-6-(3-Fluoro-4-methoxy-benzyl)-3,3-dimethyl-2,3,4,7-tetrahydro-1H-indolo[2,3-c]quinolin-1-ol pyroglutamate] gave a melting point of 185 to 187 °C.
